Experiments:
[1] = system: Ba/F3 KIF5B-RET (V804M) cells; experiment: Cell proliferation inhibition, CellTiter-Glo; type: cell-based; conditions: Mus musculus, BaF3, 72 hours
Method: (§1) Among lung cancer cell lines, which express RET fusion genes, LC-2/ad cells were cultured after adding 10% FBS (HyClone) to RPMI:F12 (1:1) (Invitrogen), and F-12 (Invitrogen) supplemented with 10% FBS was used for TT cells. RPMI-1640 supplemented with 10% FBS and 5 ng/ml IL-3 (R&D Systems) was used for Ba/F3 cells. Transduced Ba/F3 cells were cultured by adding 1 ug/ml puromycin (Invitrogen) to the same medium. 24 hours before cells were treated with the compound, 3000 to 5000 cells were aliquoted into each well of a white clear bottom 96 well plate (Corning). The compound was diluted in DMSO (3-fold dilution, a total of 12 concentrations) and the compound was injected by 0.5 μl such that the final concentration was 0.3 nM to 50 μM. For the measurement of living cells, 72 hours after the compound treatment, the cells were stored at room temperature for 10 minutes using a CellTiter-Glo luminescent cell-viability agent (Promega), and then the luminescence intensity was measured using a reader (SynergyNeo, Biotek). Each experiment was repeated in triplicate. The result value was calculated by the cell growth ratio (%) compared to the control. A graph was drawn using the GraphPad Prism version 5.0 program, and a GI50 (nM) value was calculated.
(§2) In the cell assay column, LC-2/ad (with CCDC6-RET gene) is a lung cancer cell line, a TT cell line ([…]) is a thyroid cancer cell line, Ba/F3 CCDC6-RET (WT), Ba/F3 KIF5B-RET (WT), and Ba/F3 KIF5B-RET (V804M) are cells in which disease-related traits (CCDC6-RET, KIF5B-RET, and KIF5B-RET (V804M)) are introduced into Ba/F3 cells, and Ba/F3 (naive) is a cell which is not transduced.

RET (WT) = molecular target: T1, RET (WT) (Homo sapiens, UniProt P07949); experiment: RET enzyme inhibitory ability, ADP-Glo kinase assay; type: biochemical; conditions: ATP 10 μM, 25° C., 1 hour
T1 construct: human RET (658-end, SIGNALCHEM); purchased SIGNALCHEM
T1 sequence (P07949 658-1114 limits assumed): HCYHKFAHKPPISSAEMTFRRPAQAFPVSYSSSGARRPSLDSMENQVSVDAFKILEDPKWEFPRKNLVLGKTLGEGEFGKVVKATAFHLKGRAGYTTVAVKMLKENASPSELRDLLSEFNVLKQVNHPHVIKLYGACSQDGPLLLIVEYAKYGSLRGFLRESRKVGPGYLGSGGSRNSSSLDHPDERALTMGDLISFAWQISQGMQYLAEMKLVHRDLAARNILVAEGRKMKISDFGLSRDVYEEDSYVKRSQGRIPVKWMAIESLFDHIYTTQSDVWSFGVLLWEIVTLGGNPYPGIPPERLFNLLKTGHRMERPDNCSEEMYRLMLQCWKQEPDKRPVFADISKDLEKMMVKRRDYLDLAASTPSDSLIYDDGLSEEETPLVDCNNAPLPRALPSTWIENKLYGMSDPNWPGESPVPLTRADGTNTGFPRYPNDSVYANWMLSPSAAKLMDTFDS
Method: The Example compound was reacted with a purified human RET (658-end, SIGNALCHEM) enzyme to evaluate the enzyme inhibitory ability by the following method. As a reaction buffer, a composition of 40 mM Tris-HCl pH 7.4, 20 mM MgCl2, 0.5 mg/mL BSA, and 50 μM DTT was used, and all experimental materials were reacted on the reaction buffer. After the human RET (658-end, 0.8 ng) enzyme was reacted with purified ATP (10 μM) and a specific substrate solution at 25° C. for 1 hour during the experiment, the enzyme activity was confirmed using in vitro ADP-Glo™ kinase assay (Promega). Luminescence was measured by reacting the enzyme activity reaction solution, the ADP-Glo reaction solution, and the enzyme activity detection solution at a ratio of 2:2:1. The degree of inhibition of enzyme activity according to the treatment concentration of each compound was calculated based on the […] of the enzyme activity of a solvent control group in which a compound was not treated, and in this case, the concentration of each compound which suppresses the […] enzyme activity by 50% was determined as an IC50 (nM) value. The IC50 (nM) of each compound was determined by 3 datasets and obtained using Prism (version 7.01, GraphPad) software.
In the enzyme assay column, RET (WT) is a non-mutated form, RET (V804M) is a mutated form in which the V amino acid at position 804 of the RET is substituted with M, and CCDC6-RET is a form in which the RET (WT) gene and CCDC6 gene are fused.

Ba/F3 (naive) cells = experiment: Cell proliferation inhibition, CellTiter-Glo; type: cell-based; conditions: Mus musculus, BaF3; Ba/F3 not transduced, 72 hours
Method: as §1, §2

[2] = system: Ba/F3 CCDC6-RET (WT) cells; experiment: Cell proliferation inhibition, CellTiter-Glo; type: cell-based; conditions: BaF3/CCDC6-RET, 72 hours
Method: as §1, §2

[3] = system: Ba/F3 KIF5B-RET (WT) cells; experiment: Cell proliferation inhibition, CellTiter-Glo; type: cell-based; conditions: Mus musculus, BaF3, 72 hours
Method: as §1, §2

Compound	GI50 [1] [nM]	IC50 (RET (WT)) [nM]	GI50 (Ba/F3 (naive) cells) [nM]	GI50 [2] [nM]	GI50 [3] [nM]
COc1ccc(CN2C(C)CN(c3ccc(-c4nc(Nc5cc(C)[nH]n5)c5ccccc5n4)cn3)C[C@H]2C)cn1 (stereo in doubt) [Example 35, 2-(6-((3R,5S)-4-((6-methoxy-pyridin-3-yl)methyl)-3,5-dimethyl-piperazin-1-yl)pyridin-3-yl)-N-(5-methyl-1H-pyrazol-3-yl)quinazolin-4-amine]	328	–	–	–	–
Cc1cc(Nc2nc(-c3ccc(N4CC5CC(C4)N5Cc4ncc(C)s4)nc3)nc3ccccc23)n[nH]1 [Example 5, N-(5-methyl-1H-pyrazol-3-yl)-2-(6-(6-((5-methylthiazol-2-yl)methyl)-3,6-diazabicyclo [3.1.1]heptan-3-yl)pyridin-3-yl)quinazolin-4-amine]	4	18	1060	41	7
COc1ccc(CN2CC3CC(C2)N3c2ccc(-c3nc(Nc4cc(C)[nH]n4)c4ccccc4n3)cn2)cn1 [Example 6, 2-(6-(3-((6-methoxypyridin-3-yl)methyl)-3,6-diazabicyclo [3.1.1]heptan-6-yl)pyridin-3-yl)-N-(5-methyl-1H-pyrazol-3-yl)quinazolin-4-amine]	70	27	9220	166	67
Cc1cc(Nc2nc(-c3ccc(N4CC5CC(C4)N5Cc4ccc(C(F)(F)F)nc4)nc3)nc3ccccc23)n[nH]1 [Example 8, N-(5-methyl-1H-pyrazol-3-yl)-2-(6-(6-((6-(tri-fluoromethyl)py-ridin-3-yl)meth-yl)-3,6-diaza-bicyclo[3.1.1]heptan-3-yl)pyridin-3-yl)quinazolin-4-amine]	23	32	1980	51	12
Cc1cc(Nc2nc(-c3ccc(N4CC5CC(C4)N5Cc4ccc(C#N)nc4)nc3)nc3ccccc23)n[nH]1 [Example 9, 5-((3-(5-(4-((5-methyl-1H-py-razol-3-yl)amino)quinazolin-2-yl)pyridin-2-yl)-3,6-diazabicyclo [3.1.1]heptan-6-yl)methyl)pico-linonitrile]	23	30	822	62	23
Cc1ccc(CN2C3CC2CN(c2ccc(-c4nc(Nc5cc(C)[nH]n5)c5ccccc5n4)cn2)C3)cn1 [Example 10]	10	10	920	39	9
Cc1cc(Nc2nc(-c3ccc(N4CC5CC(C4)N5Cc4cc(F)c(OC(C)C)c(F)c4)nc3)nc3ccccc23)n[nH]1 [Example 11, 2-(6-(6-(3,5-difluoro-4-isopropoxy-benzyl)-3,6-diazabicyclo [3.1.1]heptan-3-yl)pyridin-3-yl)-N-(5-methyl-1H-pyrazol-3-yl)quinazolin-4-amine]	119	–	–	–	–
COc1ccc(CN2C3CC2CN(c2ccc(-c4nc(Nc5cc(C)[nH]n5)c5ccccc5n4)cn2)C3)cc1C#N [Example 12, 2-methoxy-5-((3-(5-(4-((5-methyl-1H-pyrazol-3-yl)amino)quina-zolin-2-yl)pyridin-2-yl)-3,6-diazabicyclo [3.1.1]heptan-6-yl)methyl)benzo-nitrile]	49	38	2540	52	15
Cc1cc(Nc2nc(-c3ccc(N4CC5CC(C4)N5Cc4cnc[nH]4)nc3)nc3ccccc23)n[nH]1 [Example 13, 2-(6-(6-((1H-imidazol-5-yl)methyl)-3,6-diazabicyclo [3.1.1]heptan-3-yl)pyridin-3-yl)-N-(5-methyl-1H-pyrazol-3-yl)quinazolin-4-amine]	2450	–	–	–	–
COc1ccc(CN2C3CC2CN(c2ccc(-c4nc(Nc5cc(C)[nH]n5)c5ccccc5n4)cn2)C3)cc1 [Example 14, 2-(6-(6-(4-methoxybenzyl)-3,6-diaza-bicyclo[3.1.1]heptan-3-yl)pyridin-3-yl)-N-(5-methyl-1H-pyrazol-3-yl)quinazolin-4-amine]	22	10	2700	33	11
Cc1cc(Nc2nc(-c3ccc(N4CC5CC(C4)N5Cc4ccc(OC(C)C)nc4)nc3)nc3ccccc23)n[nH]1 [Example 15, 2-(6-(6-((6-iso-propoxypyridin-3-yl)methyl)-3,6-diazabicyclo [3.1.1]heptan-3-yl)pyridin-3-yl)-N-(5-methyl-1H-pyrazol-3-yl)quinazolin-4-amine]	30	40	3100	75	24
COc1ncc(CN2C3CC2CN(c2ccc(-c4nc(Nc5cc(C)[nH]n5)c5ccccc5n4)cn2)C3)cc1Cl [Example 16, 2-(6-(6-((5-chloro-6-methoxypyridin-3-yl)methyl)-3,6-diazabicyclo [3.1.1]heptan-3-yl)pyridin-3-yl)-N-(5-methyl-1H-pyrazol-3-yl)quinazolin-4-amine]	39	60	4010	127	42
Cc1cc(Nc2nc(-c3ccc(N4CC5CC(C4)N5Cc4ccc(NS(C)(=O)=O)cc4)nc3)nc3ccccc23)n[nH]1 [Example 21, N-(4-((3-(5-(4-((5-methyl-1H-pyrazol-3-yl)a-mino)quinazolin-2-yl)pyridin-2-yl)-3,6-diazabicyclo [3.1.1]heptan-6-yl)methyl)phenyl) methane-sulfonamide]	117	–	–	–	–
Cc1cc(Nc2nc(-c3ccc(N4CC5CC(C4)N5Cc4ccn(C)c(=O)c4)nc3)nc3ccccc23)n[nH]1 [Example 27, 1-methyl-4-((3-(5-(4-((5-methyl-1H-pyrazol-3-yl)amino)quina-zolin-2-yl)pyridin-2-yl)-3,6-diazabicyclo [3.1.1]heptan-6-yl)methyl)pyri-din-2(1H)-one]	159	–	–	–	–
COc1ccc(CN2C[C@H](C)N(c3ccc(-c4nc(Nc5cc(C)[nH]n5)c5ccccc5n4)cn3)C[C@H]2C)cn1 [Example 28, 2-(6-((2S,5R)-4-((6-methoxy-pyridin-3-yl)methyl)-2,5-di-methylpiperazin-1-yl)pyridin-3-yl)-N-(5-methyl-1H-pyrazol-3-yl)quinazolin-4-amine]	321	–	–	–	–
COc1ccc(CN2C[C@@H](C)N(c3ccc(-c4nc(Nc5cc(C)[nH]n5)c5ccccc5n4)cn3)C[C@@H]2C)cn1 [Example 32]	239	–	–	–	–
COc1ccc(CN2CCN(c3ccc(-c4nc(Nc5cc(C)[nH]n5)c5ccccc5n4)cn3)C[C@@H]2C)cn1 [Example 33, (S)-2-(6-(4-((6-methoxypyridin-3-yl)methyl)-3-methylpiperazin-1-yl)pyridin-3-yl)-N-(5-methyl-1H-pyrazol-3-yl)quinazolin-4-amine]	121	–	–	–	–
